These results are taken from patent US11453647B2, “Benzimidazole derivatives as adenosine receptor antagonists” (Merck Patent GmbH, priority 2017, dated 2022).

pIC50: −log10 of the molar value.

Data set [1] has as its system mouse Pan T cells. The data set is described as follows: mouse Pan T cell IFN-γ rescue from A2A agonist CGS-21680 (ELISA, 48 h). It is filed as cell-based. Particulars: for pIC50: Mus musculus, T-cell. The text has this:
(§1) Adenosine (Ado) in tumor microenvironment can inhibit T cell activity by signaling through A2A receptors and suppress cytokine secretion by T cells. […] Potential A2A antagonists or A2A/A2B dual antagonists can rescue T cells from this inhibition. Herein, we describe the in vitro system we established using Pan T cells from mouse spleens to screen potential A2A antagonists or A2A/A2B dual antagonists for their activity. The method described involves the use of CD3/CD28 pre-coated beads to stimulate Pan T cells purified from mouse splenocytes, combined with the addition of A2A agonist along with potential A2A or A2A/A2B dual antagonists to evaluate potentiation of T cell cytokine production.
(§2) Briefly, mouse Pan T cells are purified from spleens of BALB/c mice using Pan T cell isolation kit Mouse II (MACS Miltenyi biotech Cat # Order no. 130-095-130) according to manufacturer's protocol. The purified T cells are seeded in Nunc™ 96-Well Polystyrene Round Bottom Microwell Plates in RPMI medium with 10% heat inactivated fetal bovine serum. The cells are rested at 37° C. for 1 h before activating with CD3/CD28 pre-coated beads (Dynabeads™ Mouse T-Activator CD3/CD28; Cat #11456D). After 30 min the cells are treated with varying doses of test antagonist(s). […] After 24 h incubation IL-2 levels in the supernatants and after 48 h incubation IFN-γ levels in the supernatants are measured by ELISAs according to manufacturer's protocol (R&D systems Cat # DY402 (IL-2); DY485 (IFN-γ)). Once the concentrations are calculated, the difference of cytokine concentration of DMSO control and agonist alone control is calculated (called A) and the percentage of rescue by each concentration of antagonist is calculated by using Microsoft Excel. These percentages of cytokine rescue in a dose dependent manner of antagonist is plotted in GraphPad Prism software and IC50 is calculated.
For orientation: An ELISA detects its analyte on a solid surface through an enzyme-linked reagent.

Data set [2] can be described thus: pharmacokinetic properties in mouse after single intravenous and oral administration. It is filed as in vivo. Particulars: PK data in mouse; for Feces iv: @0.2 (dose, unit not given); for clearance / half-life / Cmax / Vd: female, plasma, 0.2 mg/kg; for Cmax: dose-normalized to 1 mg/kg; for Vd: read-out: Vss. The text has this: The objective of the study was to obtain information on the pharmacokinetic properties of the compounds of the present invention in female Wistar rats/mice following single intravenous and oral administration.
Female Wistar rats/mice (n=6) received either a single intravenous (bolus) injection or an oral administration (by gavage) of the tested compound.
The concentrations of the compounds in plasma, feces were quantified using an UPLC method with tandem mass spectrometric detection (LC-MS/MS) previously developed at the ‘Institute of Drug Metabolism and Pharmacokinetics’. The LC-MS/MS system consisted of a Waters Acquity UPLC coupled to an AB Sciex mass spectrometer API 5500 Q-trap. […] The detection of the compounds was performed using multiple reaction monitoring in the positive ionization mode. Plasma samples were spiked with internal standard (20 μl) and the analyte was extracted from the matrix using tertiary-butyl methyl ether (tBME). The organic phase was evaporated to dryness under a stream of nitrogen. The residue was dissolved in acetonitrile/0.1% formic acid for LC-MS/MS analysis. Feces samples were homogenized with 4-times their volume of an ethanol/water mixture (4:1, v/v). Aliquots of the aqueous-ethanolic extracts were spiked with internal standard, diluted with acetonitrile/water (1:1, v/v) and directly injected into the LC-MS/MS system.
Pharmacokinetic parameters Cmax and tmax were taken from the observed data. […] AUC values were calculated by non-compartmental analysis using the linear up/log down method. Numerical data for mean plasma concentrations and derived pharmacokinetic parameters were rounded to 3 significant digits for presentation.

For a further data set, the target named is T1, A2B receptors (Homo sapiens, UniProt P29275).
T1 sequence (P29275 1-332): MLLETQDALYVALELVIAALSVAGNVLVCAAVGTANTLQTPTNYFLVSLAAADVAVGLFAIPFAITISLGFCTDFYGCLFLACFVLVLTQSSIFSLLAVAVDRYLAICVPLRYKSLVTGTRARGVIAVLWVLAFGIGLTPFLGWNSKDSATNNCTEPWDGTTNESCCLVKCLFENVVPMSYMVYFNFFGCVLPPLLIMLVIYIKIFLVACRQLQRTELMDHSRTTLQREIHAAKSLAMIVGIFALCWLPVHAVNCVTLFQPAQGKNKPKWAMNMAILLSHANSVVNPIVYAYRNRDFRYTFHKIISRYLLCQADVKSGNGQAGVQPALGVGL
In words: functional cAMP (HTRF) assay, recombinant HEK293 cells expressing human A2B receptor, agonist NECA. It is filed as cell-based. Also noted: expressed in transfected cells; host or cells: HEK293. A general note: In TR-FRET formats the signal depends on donor and acceptor labels being close together.

Another data set addresses T2, human A1 receptor (Homo sapiens, UniProt P30542).
T2 construct: expressed in transfected cells; host or cells: CHO
T2 sequence (P30542 1-326): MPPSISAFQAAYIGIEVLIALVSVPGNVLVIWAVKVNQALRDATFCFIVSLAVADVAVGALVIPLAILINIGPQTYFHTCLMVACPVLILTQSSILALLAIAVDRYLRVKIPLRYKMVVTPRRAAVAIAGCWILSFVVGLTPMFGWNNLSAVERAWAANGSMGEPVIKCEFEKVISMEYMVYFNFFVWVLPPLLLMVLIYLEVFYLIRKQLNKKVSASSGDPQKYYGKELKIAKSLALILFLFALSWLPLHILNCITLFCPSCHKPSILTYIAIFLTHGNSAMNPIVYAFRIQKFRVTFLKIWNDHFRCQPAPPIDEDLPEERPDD
The data set is described as follows: functional cAMP (HTRF) assay, recombinant CHO cells expressing human A1 receptor, forskolin, agonist CPA. It is filed as cell-based. Summed up: (§3)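 Gi-coupled readout: CHO cells expressing human A1 or A3 receptor were treated with forskolin, test compound and agonist (CPA for A1, IB-MECA for A3) for 30 min; cellular cAMP was then measured by HTRF. Data were normalized to inhibitor and DMSO controls and curve-fitted.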

The target in a further data set is T3, human A3 receptor (Homo sapiens, UniProt P0DMS8).
T3 construct: expressed in transfected cells; host or cells: CHO
T3 sequence (P0DMS8 1-318): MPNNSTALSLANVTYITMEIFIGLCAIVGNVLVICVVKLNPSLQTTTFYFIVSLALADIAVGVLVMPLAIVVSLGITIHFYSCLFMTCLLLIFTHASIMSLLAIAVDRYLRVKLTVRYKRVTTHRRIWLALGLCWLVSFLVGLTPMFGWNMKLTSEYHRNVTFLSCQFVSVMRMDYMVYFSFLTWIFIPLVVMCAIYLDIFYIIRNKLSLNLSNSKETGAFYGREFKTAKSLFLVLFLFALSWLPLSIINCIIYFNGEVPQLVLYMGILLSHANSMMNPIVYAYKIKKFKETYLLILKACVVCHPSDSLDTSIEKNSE
The data set is described as follows: functional cAMP (HTRF) assay, recombinant CHO cells expressing human A3 receptor, forskolin, agonist IB-MECA. It is filed as cell-based. Summed up:
as §3

Data set [3] has as its system mouse Pan T cells. The data set is described as follows: mouse Pan T cell IL-2 rescue from A2A agonist CGS-21680 (ELISA, 24 h). It is filed as cell-based. Particulars: for pIC50: Mus musculus, T-cell.
Description: as §1, §2

The target of the next data set is T4, human A2A receptor (Homo sapiens, UniProt P29274).
T4 construct: expressed in transfected cells; host or cells: HEK293
T4 sequence (P29274 whole entry): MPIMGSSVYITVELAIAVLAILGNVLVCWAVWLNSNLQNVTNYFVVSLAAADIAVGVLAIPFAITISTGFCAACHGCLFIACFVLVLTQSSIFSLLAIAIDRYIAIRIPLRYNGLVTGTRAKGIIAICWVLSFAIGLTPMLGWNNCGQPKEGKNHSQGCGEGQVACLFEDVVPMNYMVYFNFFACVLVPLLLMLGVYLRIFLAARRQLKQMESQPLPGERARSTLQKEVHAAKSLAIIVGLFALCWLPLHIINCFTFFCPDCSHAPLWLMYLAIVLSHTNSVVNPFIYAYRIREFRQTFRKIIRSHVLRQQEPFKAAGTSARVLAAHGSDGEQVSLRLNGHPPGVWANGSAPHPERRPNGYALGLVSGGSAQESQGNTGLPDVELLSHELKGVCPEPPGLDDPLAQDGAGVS
In words: functional cAMP (HTRF) assay, recombinant HEK293 cells expressing human A2A receptor, agonist NECA. It is filed as cell-based.

The mark [4] stands for this setting: IC50 of cytokine rescue, CGS-21680 1 μM, CD3/CD28 beads.

A word on the pIC50: it is the IC50 on a negative log10 scale, so that one unit is a factor of ten. The term half-life denotes the time in which the quantity being followed falls by half. As a reminder, the Cmax is the peak of the concentration-time curve.

For `COc1ccc(-c2cnn(C)c2)c2nc(NC(=O)c3ccc(C(=O)N(C)C)cc3)[nH]c12` [compound 93, N4-[7-methoxy-4-(1-methyl-1H-pyrazol-4-yl)-1H-1,3-benzodiazol-2-yl]-N1,N1-dimethylbenzene-1,4-dicarboxamide], the pIC50 with mouse Pan T cells [1] was 6.46; at A2B receptors, > 7.00; on human A1 receptor, < 6.00; on human A3 receptor, < 6.00; with mouse Pan T cells [3], 6.95; on human A2A receptor it was > 8.00. Also, the Feces iv in data set [2] is reported as 42@0.2%. Moreover, the clearance in data set [2] is 6.77 mL/min/kg. In addition, the half-life in data set [2] was 46.1 min. For the same compound, in data set [2], the concentration peaked (Cmax) at 3160 ng/mL. For the same compound, the Vd in data set [2] was 0.357 L/kg.
Consider `COc1ccc(-c2cnn(C)c2)c2nc(NC(=O)N3CCC(C)(CO)CC3)[nH]c12` [compound 35, 4-Hydroxymethyl-4-methyl-piperidine-1-carboxylic acid [7-methoxy-4-(1-methyl-1H-pyrazol-4-yl)-1H-benzoimidazol-2-yl]-amide], for which the values for the pIC50 in the data set on mouse Pan T cells [1] and in the data set on mouse Pan T cells [3] were 6.66 and 6.92, respectively.
On to `C#CCC1(O)CCN(C(=O)Nc2nc3c(-c4cnn(C)c4)ccc(OC)c3[nH]2)CC1` [compound 92, 4-hydroxy-N-[7-methoxy-4-(1-methyl-1H-pyrazol-4-yl)-1H-1,3-benzodiazol-2-yl]-4-(prop-2-yn-1-yl)piperidine-1-carboxamide], for which the pIC50 in the data set with mouse Pan T cells [1] is 6.30; at A2B receptors it was > 6.00; on human A1 receptor, < 6.00; on human A3 receptor, < 6.00; in the data set on mouse Pan T cells [3] it was 6.00; at human A2A receptor, > 8.00. Besides, the Feces iv in data set [2] is on record as 26@0.2%. This compound also showed a clearance in data set [2] of 31.7 mL/min/kg. This compound had a half-life in data set [2] of 33.4 min. The compound also registered a Cmax in data set [2] of 892 ng/mL. Further, the Vd in data set [2] worked out at 1.17 L/kg.
For `COc1ccc(-c2cnn(C)c2)c2nc(NC(=O)N3CCC4(CCCOC4)C3)[nH]c12` (stereo not drawn) [compound 67, N-[7-methoxy-4-(1-methyl-1H-pyrazol-4-yl)-1H-1,3-benzodiazol-2-yl]-7-oxa-2-azaspiro[4.5]decane-2-carboxamide], the pIC50 with mouse Pan T cells [1] was 6.10.
On to `COc1ccc(N2CCOCC2)c2sc(NC(=O)N3CCC(C)(O)CC3)nc12` [Tozadenant, reference compound], for which the “Mouse IFN-γ” value in the data set on mouse Pan T cells [1] (setting [4]) was “NA (<50% rescue)”. In addition, in data set [2], the Feces iv is recorded as 23@0.2%. The “Mouse T-Cell IL-2” value in the data set with mouse Pan T cells [3] (setting [4]) is recorded as “NA (<50% rescue)”.
As for `CCNCc1ccc(C(=O)Nc2nc3c(-c4ccccc4)ccc(OC)c3[nH]2)cc1` [compound 11, 4-Ethylaminomethyl-N-(7-methoxy-4-phenyl-1H-benzoimidazol-2-yl)-benzamide], the pIC50 in the data set on mouse Pan T cells [1] is 7.12; at A2B receptors, > 7.00; on human A1 receptor it was < 6.00; at human A3 receptor it was < 6.00; with mouse Pan T cells [3] it was 7.36; at human A2A receptor it was > 8.00.
`COc1ccc(-c2cnn(C)c2)c2nc(NC(=O)N3CC[C@@]4(CCCOC4)C3)[nH]c12` [compound 114, (5S)-N-[7-methoxy-4-(1-methyl-1H-pyrazol-4-yl)-1H-1,3-benzodiazol-2-yl]-7-oxa-2-azaspiro[4.5]decane-2-carboxamide]: the pIC50 is 6.05 with mouse Pan T cells [1]; < 6.00 on A2B receptors; < 6.00 on human A1 receptor; < 6.00 at human A3 receptor; 6.05 in the data set on mouse Pan T cells [3]; > 8.00 at human A2A receptor. Moreover, the Feces iv in data set [2] is reported as 9@0.2%. The compound further showed a clearance in data set [2] of 9.43 mL/min/kg. In addition, the half-life in data set [2] was 66.6 min. The compound also returned a Cmax in data set [2] of 1440 ng/mL. Besides, the Vd in data set [2] was determined as 0.842 L/kg.
With `COc1ccc(-c2cnn(C)c2)c2nc(NC(=O)c3ccc(OC(F)(F)F)cc3)[nH]c12` [compound 94, N-[7-methoxy-4-(1-methyl-1H-pyrazol-4-yl)-1H-1,3-benzodiazol-2-yl]-4-(trifluoromethoxy)benzamide], the pIC50 in the data set on mouse Pan T cells [1] is 6.00; on A2B receptors it was > 6.00; on human A1 receptor it was < 6.00; at human A3 receptor it was > 6.00; at human A2A receptor it was > 8.00.
Take `COc1ccc(-c2ccccc2)c2nc(NC(=O)c3ccc(Cn4ccnc4)cc3)[nH]c12` [compound 15, 4-Imidazol-1-ylmethyl-N-(7-methoxy-4-phenyl-1H-benzoimidazol-2-yl)-benzamide]: the pIC50 was > 8.00 at A2B receptors; > 6.00 at human A1 receptor; > 7.00 at human A3 receptor; 5.95 in the data set with mouse Pan T cells [3]; > 8.00 at human A2A receptor.
On to `COc1ccc(-c2cnn(C)c2)c2nc(NC(=O)c3ccc(Cn4ccnc4)cc3)[nH]c12` [compound 71, 4-[(1H-imidazol-1-yl)methyl]-N-[7-methoxy-4-(1-methyl-1H-pyrazol-4-yl)-1H-1,3-benzodiazol-2-yl]benzamide], for which the pIC50 is 7.40 in the data set on mouse Pan T cells [1]; > 7.00 on A2B receptors; < 6.00 at human A1 receptor; > 6.00 at human A3 receptor; 7.40 in the data set with mouse Pan T cells [3]; > 8.00 at human A2A receptor.
With `COc1ccc(-c2cnn(C)c2)c2nc(NC(=O)c3ccc(CN4CCCC4=O)cc3)[nH]c12` [compound 100, N-[7-methoxy-4-(1-methyl-1H-pyrazol-4-yl)-1H-1,3-benzodiazol-2-yl]-4-[(2-oxopyrrolidin-1-yl)methyl]benzamide], the pIC50 in the data set on mouse Pan T cells [1] is 7.10; on A2B receptors, > 6.00; on human A1 receptor, < 6.00; at human A3 receptor, < 6.00; in the data set with mouse Pan T cells [3] it was 7.00; on human A2A receptor, > 8.00. For the same compound, the Feces iv in data set [2] was 12.5@0.2%. In data set [2], this compound gave a clearance of 22.5 mL/min/kg. For the same compound, the half-life in data set [2] is 32.9 min. Also, in data set [2], the highest concentration (Cmax) came out at 888 ng/mL. Further, in data set [2], the Vd was 1.05 L/kg.
